The numbers were not newly measured in patent publication US20060163529A1, “Water-based coolant fluid for engine applications” (Neste Oil Oyj, priority 2002, published 2006), which cites them from elsewhere.

For this data set, the system named is rats. As to conditions: tested orally in rats.

Regarding `CC(O)CO` (centres unmarked) [Propylene glycol, propylene glycol], the LD50 is reported as 20 000 mg/kg.
`C[N+](C)(C)CC(=O)O` [Trimethyl glycine, trimethyl glycine]: the LD50 was 11 200 mg/kg.
